Experimental data reported in DBAASP.
In brackets after ≈: the same amount, converted by molar mass.

Key:
Assay in all cases: ≥ marks a high value that may be exact or a test limit, other limits are often not marked, values filed in µg/mL are converted to µM
[1] = tested on: Staphylococcus aureus ATCC 25923
[2] = tested on: Candida albicans ATCC 2002
[3] = tested on: Pseudomonas aeruginosa CMCCB 10104
[4] = tested on: Escherichia coli ATCC 25922
[5] = tested on: Enterococcus faecalis ATCC 29212
[6] = tested on: Pseudomonas aeruginosa H103
Candida albicans = tested on: Candida albicans
[7] = tested on: Staphylococcus epidermidis
[8] = tested on: Salmonella enterica serovar Typhimurium
Escherichia coli UB1005 = tested on: Escherichia coli UB1005

Row | SMILES | MIC [1] [µM] | MIC [2] [µM] | MIC [3] [µM] | MIC [4] [µM] | MIC [5] [µM] | MIC [6] [µM] | MIC (Candida albicans) [µM] | MIC [7] [µM] | MIC [8] [µM] | MIC (Escherichia coli UB1005) [µM]
1 | CC[C@H](C)[C@H](NC(=O)CNC(=O)[C@H](C)NC(=O)[C@H](Cc1ccccc1)NC(=O)[C@H](CC(C)C)NC(=O)[C@H](CCCCN)NC(=O)[C@@H]1CCCN1C(=O)[C@H](CC(C)C)NC(=O)[C@@H](N)Cc1ccccc1)C(=O)N[C@H](C(=O)N[C@@H](CO)C(=O)N[C@@H](CCCCN)C(=O)N[C@@H](CC(N)=O)C(=O)N[C@@H](Cc1ccccc1)C(=O)O)[C@@H](C)CC [FLPKLFAGIISKNF] | 13.2 (≈ 21 µg/mL) | 3.32 (≈ 5.3 µg/mL) | 6.58 (≈ 10.5 µg/mL) | 6.58 (≈ 10.5 µg/mL) |  |  |  |  |  | 
2 | CC[C@H](C)[C@H](NC(=O)CN)C(=O)N[C@@H](Cc1ccccc1)C(=O)N[C@@H](CO)C(=O)N[C@@H](CCCCN)C(=O)N[C@H](C(=O)N[C@@H](CO)C(=O)NCC(=O)N[C@@H](CCCCN)C(=O)N[C@@H](C)C(=O)N[C@H](C(=O)N[C@@H](CCCCN)C(=O)N[C@@H](CC(N)=O)C(=O)N[C@@H](CC(C)C)C(=O)N[C@@H](Cc1ccccc1)C(=O)N[C@H](C(=O)N[C@@H](CCCCN)C(=O)NCC(=O)N[C@@H](C)C(=O)N[C@@H](CCCCN)C(=O)N[C@@H](CC(N)=O)C(=O)N[C@H](C(=O)NCC(=O)N[C@@H](CCCCN)C(=O)N[C@@H](CCC(=O)O)C(=O)N[C@H](C(=O)NCC(=O)N[C@@H](CCSC)C(=O)N[C@@H](CC(=O)O)C(=O)N[C@H](C(=O)N[C@H](C(=O)N[C@@H](CCCN=C(N)N)C(=O)N[C@H](C(=O)NCC(=O)N[C@H](C(=O)N[C@@H](CC(=O)O)C(=O)N[C@H](C(=O)N[C@H](C(=O)NCC(=O)N[C@H]1CSSC[C@@H](C(=O)O)NC(=O)[C@H](CCC(=O)O)NC(=O)CNC(=O)[C@H](CCCCN)NC(=O)[C@H]([C@@H](C)CC)NC(=O)[C@H](CCCCN)NC1=O)C(C)C)C(C)C)[C@@H](C)CC)[C@@H](C)O)C(C)C)C(C)C)C(C)C)C(C)C)[C@@H](C)CC)[C@@H](C)CC)[C@@H](C)CC [GIFSKISGKAIKNLFIKGAKNVGKEVGMDVVRTGIDVVGCKIKGEC] | 0.915 (≈ 4.4 µg/mL) | 1.83 (≈ 8.8 µg/mL) | 3.66 (≈ 17.6 µg/mL) | 1.83 (≈ 8.8 µg/mL) |  |  |  |  |  | 
3 | CC(C)C[C@H](NC(=O)[C@H](CC(C)C)NC(=O)[C@H](CC(N)=O)NC(=O)[C@H](CCCCN)NC(=O)[C@@H](NC(=O)[C@@H](NC(=O)[C@H](C)NC(=O)[C@H](CC(C)C)NC(=O)[C@@H](NC(=O)CN)C(C)C)[C@@H](C)O)C(C)C)C(=O)N[C@@H](CC(N)=O)C(=O)NCC(=O)N[C@H](C(=O)NCC(=O)N[C@@H](CC(=O)O)C(=O)NCC(=O)N[C@@H](C)C(=O)N[C@@H](C)C(=O)N[C@@H](CCC(N)=O)C(=O)N[C@@H](CO)C(=O)N[C@H](C(=O)N[C@@H](CC(C)C)C(=O)N[C@@H](CCCCN)C(=O)N[C@H](C(=O)N[C@@H](CC(C)C)C(=O)N[C@@H](CO)C(=O)N[C@H]1CSSC[C@@H](C(=O)O)NC(=O)[C@H](CC(=O)O)NC(=O)[C@H](CC(N)=O)NC(=O)[C@H](CO)NC(=O)[C@H](CC(C)C)NC(=O)[C@H](CCCCN)NC1=O)[C@@H](C)O)C(C)C)[C@@H](C)O [GVLATVKNLLNGTGDGAAQSVLKTLSCKLSNDC] | 1.22 (≈ 4 µg/mL) | 1.22 (≈ 4 µg/mL) | 4.8 (≈ 15.8 µg/mL) | 2.4 (≈ 7.9 µg/mL) |  |  |  |  |  | 
4 | CC(C)C[C@H](NC(=O)[C@H](CCCCN)NC(=O)[C@H](CCCN=C(N)N)NC(=O)[C@H](Cc1c[nH]c2ccccc12)NC(=O)[C@@H](N)CC(N)=O)C(=O)N[C@@H](Cc1ccc(O)cc1)C(=O)N[C@@H](CCCN=C(N)N)C(=O)N[C@@H](CCCN=C(N)N)C(=O)N[C@@H](CCCCN)C(=O)O [NWRKLYRRK] | 86.5 (≈ 114 µg/mL) |  |  |  | > 86.5 | ≥ 86.5 | 86.5 (≈ 114 µg/mL) | ≥ 43.3 | ≥ 86.5 | ≥ 86.5
5 | CSCC[C@H](NC(=O)[C@H](CCC(=O)O)NC(=O)[C@H](CS)NC(=O)[C@H](C)NC(=O)[C@@H](NC(=O)CNC(=O)[C@H](C)NC(=O)[C@@H](NC(=O)[C@H](Cc1ccccc1)NC(=O)[C@@H]1CCCN1C(=O)[C@H](CC(C)C)NC(=O)[C@@H](N)CCC(N)=O)C(C)C)C(C)C)C(=O)N[C@@H](CS)C(=O)N[C@@H](CCC(N)=O)C(=O)N[C@@H](CS)C(=O)N[C@H](C(=O)N[C@@H](Cc1ccc(O)cc1)C(=O)N[C@H]1CSSC[C@@H](C(=O)O)NC(=O)[C@H](CCCCN)NC(=O)[C@H](CCCCN)NC(=O)[C@H](CO)NC(=O)[C@H](C)NC(=O)[C@H](C)NC1=O)C(C)C [QLPFVAGVACEMCQCVYCAASKKC] | 4.47 (≈ 11.4 µg/mL) | 4.47 (≈ 11.4 µg/mL) | 2.23 (≈ 5.7 µg/mL) | 2.23 (≈ 5.7 µg/mL) |  |  |  |  |  | 
6 | CC[C@H](C)[C@H](NC(=O)[C@H](CCCN=C(N)N)NC(=O)[C@H](CC(C)C)NC(=O)[C@H](CCCN=C(N)N)NC(=O)[C@@H](N)C(C)C)C(=O)N[C@@H](CCCN=C(N)N)C(=O)N[C@H](C(=O)N[C@@H](C)C(=O)N[C@H](C(=O)N[C@H](C(=O)N[C@@H](CCCN=C(N)N)C(=O)N[C@@H](CCCCN)C(N)=O)[C@@H](C)CC)C(C)C)C(C)C [VRLRIRVAVIRK] | 4.06 (≈ 6 µg/mL) |  |  |  |  | 4.06 (≈ 6 µg/mL) | 2.03 (≈ 3 µg/mL) | 1.08 (≈ 1.6 µg/mL) | 4.06 (≈ 6 µg/mL) | 2.03 (≈ 3 µg/mL)

Further lines, results first:

Row | MIC [1] [µM] | MIC [2] [µM] | MIC [3] [µM] | MIC [4] [µM] | MIC [5] [µM] | MIC [6] [µM] | MIC (Candida albicans) [µM] | MIC [7] [µM] | MIC [8] [µM] | MIC (Escherichia coli UB1005) [µM] | SMILES
7 | 0.7 (≈ 1.04 µg/mL) |  |  |  | 11.1 (≈ 16.5 µg/mL) | 11.1 (≈ 16.5 µg/mL) | 5.6 (≈ 8.33 µg/mL) | 0.7 (≈ 1.04 µg/mL) | 5.6 (≈ 8.33 µg/mL) | 2.8 (≈ 4.17 µg/mL) | NCCCC[C@H](NC(=O)[C@H](Cc1c[nH]c2ccccc12)NC(=O)[C@H](Cc1c[nH]c2ccccc12)NC(=O)[C@H](CCCN=C(N)N)NC(=O)[C@@H](N)CCCCN)C(=O)N[C@@H](Cc1c[nH]c2ccccc12)C(=O)N[C@@H](Cc1c[nH]c2ccccc12)C(=O)N[C@@H](CCCN=C(N)N)C(=O)N[C@@H](CCCN=C(N)N)C(=O)O [KRWWKWWRR]
8 | 0.7 (≈ 1.05 µg/mL) |  |  |  | 11.7 (≈ 17.6 µg/mL) | ≥ 46.9 | 5.9 (≈ 8.89 µg/mL) | 0.7 (≈ 1.05 µg/mL) | 5.9 (≈ 8.89 µg/mL) | 2.9 (≈ 4.37 µg/mL) | NCCCC[C@H](N)C(=O)N[C@@H](CCCN=C(N)N)C(=O)N[C@@H](Cc1c[nH]c2ccccc12)C(=O)N[C@@H](Cc1c[nH]c2ccccc12)C(=O)N[C@@H](Cc1c[nH]c2ccccc12)C(=O)N[C@@H](Cc1c[nH]c2ccccc12)C(=O)N[C@@H](CCCN=C(N)N)C(=O)N[C@@H](Cc1ccccc1)C(=O)N[C@@H](CCCN=C(N)N)C(=O)O [KRWWWWRFR]
9 | 1.6 (≈ 2.11 µg/mL) |  |  |  | 6.4 (≈ 8.43 µg/mL) | 25.7 (≈ 33.9 µg/mL) | 6.4 (≈ 8.43 µg/mL) | 1.6 (≈ 2.11 µg/mL) | 6.4 (≈ 8.43 µg/mL) | 3.2 (≈ 4.22 µg/mL) | CC[C@H](C)[C@H](NC(=O)[C@H](Cc1ccccc1)NC(=O)[C@H](CCCN=C(N)N)NC(=O)[C@@H](N)CC(C)C)C(=O)N[C@@H](CC(C)C)C(=O)N[C@@H](Cc1c[nH]c2ccccc12)C(=O)N[C@@H](Cc1c[nH]c2ccccc12)C(=O)N[C@@H](CCCCN)C(=O)N[C@@H](CCCN=C(N)N)C(=O)O [LRFILWWKR]
10 | 2.9 (≈ 3.92 µg/mL) |  |  |  | 11.5 (≈ 15.6 µg/mL) | ≥ 46.1 | 11.5 (≈ 15.6 µg/mL) | 2.9 (≈ 3.92 µg/mL) | 23.1 (≈ 31.2 µg/mL) | 5.8 (≈ 7.85 µg/mL) | CSCC[C@H](NC(=O)[C@H](CCCCN)NC(=O)[C@H](Cc1ccccc1)NC(=O)[C@@H](N)Cc1c[nH]c2ccccc12)C(=O)N[C@@H](CCCN=C(N)N)C(=O)N[C@@H](Cc1c[nH]c2ccccc12)C(=O)N[C@@H](Cc1c[nH]c2ccccc12)C(=O)NCC(=O)N[C@@H](CCCN=C(N)N)C(=O)O [WFKMRWWGR]
